In ChEMBL document CHEMBL1949522, “Acremostrictin, a highly oxygenated metabolite from the marine fungus Acremonium strictum” (J Nat Prod, 2011):
≈ marks a conversion by molar mass, not a printed value. Calls of active or inactive are those of the source. The calls are words filed in the database; no cut-off is given here.

How the values were obtained:
[1] = tested on: Bacillus subtilis; assay: Antibacterial activity against Bacillus subtilis ATCC 6633 after 24 hrs; assay type: functional; conditions: ATCC 6633, 24 h
[2] = tested on: Escherichia coli; assay: Antibacterial activity against Escherichia coli ATCC 35270 after 24 hrs; assay type: functional; conditions: ATCC 35270, 24 h
[3] = tested on: Salmonella typhimurium; assay: Antibacterial activity against Salmonella Typhimurium ATCC 14028 after 24 hrs; assay type: functional, Salmonella enterica subsp. enterica serovar Typhimurium; conditions: Salmonella enterica, ATCC 14028, 24 h
[4] = tested on: Micrococcus luteus; assay: Antibacterial activity against Micrococcus luteus IFO 12708 after 24 hrs; assay type: functional; conditions: IFO 12708, 24 h
[5] = tested on: Radical scavenging activity; assay: Antioxidant activity assessed as DPPH radical-scavenging activity after 30 mins by spectrophotometric analysis; assay type: functional
[6] = tested on: HaCaT; assay: Antioxidant activity in human HaCaT cells assessed as inhibition of H2O2-induced cell death pretreated for 1 hr prior to H2O2 challenge measured after 24 hrs by spectrophotometric analysis; assay type: functional, cell-based
[7] = tested on: K562; assay: Anticancer activity against human K562 cells; assay type: functional, cell-based
[8] = tested on: Proteus vulgaris; assay: Antibacterial activity against Proteus vulgaris ATCC 3851 after 24 hrs; assay type: functional; conditions: ATCC 3851, 24 h
[9] = tested on: Staphylococcus aureus; assay: Antibacterial activity against Staphylococcus aureus ATCC 6538p after 24 hrs; assay type: functional

CC1=C[C@@H]2C[C@]3(C)OC(=O)[C@@](O)([C@H]3C)[C@]2(O)C1=O (relative stereo)
MIC [1]: > 100 µg/mL | MIC [2]: > 100 µg/mL | MIC [3]: 50 µg/mL (≈ 198 µM) | MIC [4]: 50 µg/mL (≈ 198 µM) | Activity [5]: Dose-dependent effect | IC50 [5]: 2100 µM | inhibition [6]: Dose-dependent effect | Activity [7]: inactive | MIC [8]: 12.5 µg/mL (≈ 49.6 µM) | MIC [9]: > 100 µg/mL
